Source: ChEMBL document CHEMBL5303304, “EUbOPEN Chemogenomics Library - IncuCyte” (2023)

How the values were obtained:
Format in all cases: toxicity, cell-based
U2OS = assay: Incucyte cell viability with U2OS; conditions: human, 10 µM, compound concentration 10 uM
Fibroblast = assay: Incucyte cell viability with human fibroblast; conditions: 10 µM, compound concentration 10 uM
HEK-293T = assay: Incucyte cell viability with HEK293T; conditions: human, 10 µM, compound concentration 10 uM
Further: unitless GR value; below 1 slowed growth and below 0 cell loss.

Row | Structure (SMILES) | Growth Rate (U2OS; 6 h, replicate number 1) | Growth Rate (U2OS; 6 h, replicate number 2) | Growth Rate (U2OS; 12 h, replicate number 1) | Growth Rate (U2OS; 12 h, replicate number 2) | Growth Rate (U2OS; 18 h, replicate number 1) | Growth Rate (U2OS; 24 h, replicate number 1) | Growth Rate (U2OS; 24 h, replicate number 2) | Growth Rate (Fibroblast; 6 h, replicate number 2) | Growth Rate (Fibroblast; 12 h, replicate number 2) | Growth Rate (Fibroblast; 24 h, replicate number 1) | Growth Rate (Fibroblast; 24 h, replicate number 2) | Growth Rate (HEK-293T; 6 h, replicate number 2) | Growth Rate (HEK-293T; 12 h, replicate number 1) | Growth Rate (HEK-293T; 12 h, replicate number 2) | Growth Rate (HEK-293T; 18 h, replicate number 1) | Growth Rate (HEK-293T; 18 h, replicate number 2) | Growth Rate (HEK-293T; 24 h, replicate number 1) | Growth Rate (HEK-293T; 24 h, replicate number 2) | Growth Rate (HEK-293T; 0 h, replicate number 2) | Growth Rate (Fibroblast; 0 h, replicate number 2) | other results
1 | COc1cc(F)ccc1-c1ncnc(Nc2cccc(C[S@](C)(=N)=O)c2)n1 [ATUVECICLIB] | 0.72 | 0.22 | 0.33 | 0.18 | 0.11 | 0.03 | -0.05 | -0.07 | -0.33 | 0.09 | -0.14 | -0.61 | -0.37 | -0.56 | -0.26 | -0.44 | -0.25 | -0.36 | – | – | Growth Rate (U2OS; 0 h, replicate number 2): 0.53; Growth Rate (U2OS; 18 h, replicate number 2): 0.07; Growth Rate (Fibroblast; 0 h, replicate number 1): -0.58; Growth Rate (Fibroblast; 6 h, replicate number 1): -0.11; Growth Rate (Fibroblast; 12 h, replicate number 1): -0.04; Growth Rate (Fibroblast; 18 h, replicate number 1): -0.01; Growth Rate (Fibroblast; 18 h, replicate number 2): -0.2; Growth Rate (HEK-293T; 6 h, replicate number 1): -0.48
2 | Cc1[nH]nc(C(F)(F)F)c1Cc1sc2c(c1C(=O)N1C[C@](C)(O)CO1)c(=O)n(C)c(=O)n2C(C)C [AZD3965] | – | – | 0.92 | 0.71 | – | 0.75 | 0.83 | – | 0.69 | 0.9 | 0.8 | – | 0.53 | 0.43 | 0.17 | 0.22 | 0.11 | 0.21 | -0.81 | – | Growth Rate (U2OS; 18 h, replicate number 2): 0.69; Growth Rate (Fibroblast; 6 h, replicate number 1): 0.95; Growth Rate (Fibroblast; 18 h, replicate number 2): 0.97; Growth Rate (HEK-293T; 0 h, replicate number 1): -0.63
3 | Cc1cc2ncnn2cc1Nc1ncc2c(n1)n(C1CCOCC1)c(=O)n2C [AZD-7648] | – | – | – | – | – | 0.9 | – | – | – | – | 0.93 | 0.98 | 0.78 | 0.76 | 0.87 | 0.95 | 0.93 | – | – | 0.27 | Growth Rate (U2OS; 0 h, replicate number 1): 0.4; Growth Rate (Fibroblast; 18 h, replicate number 2): 0.83; Growth Rate (HEK-293T; 6 h, replicate number 1): 0.34
4 | C[C@@H]1Cc2c([nH]c3ccccc23)[C@@H](c2c(F)cc(/C=C/C(=O)O)cc2F)N1CC(C)(C)F [AZD-9496] | 0.39 | – | 0.94 | – | 0.92 | 0.91 | – | -0.38 | 0.62 | – | 0.65 | – | – | – | – | – | – | – | -0.31 | – | Growth Rate (U2OS; 0 h, replicate number 1): 0.01; Growth Rate (Fibroblast; 18 h, replicate number 2): 0.88; Growth Rate (HEK-293T; 0 h, replicate number 1): -0.59
5 | Cc1onc(-c2ccc(F)cc2)c1COc1ccc(C(=O)N2CCS(=O)(=O)CC2)cn1 [BASMISANIL] | 0.73 | 0.62 | 0.73 | 0.8 | 0.87 | 0.86 | 0.82 | -0.92 | 0.69 | – | – | 0.2 | – | 0.86 | – | 0.92 | 0.97 | 0.94 | – | -0.96 | Growth Rate (U2OS; 18 h, replicate number 2): 0.98; Growth Rate (Fibroblast; 12 h, replicate number 1): -1; Growth Rate (Fibroblast; 18 h, replicate number 1): -0.07
6 | C[C@@H]1OCC2(CCN(c3cnc(Sc4ccnc(N)c4Cl)c(N)n3)CC2)[C@@H]1N [BATOPROTAFIB] | 0.3 | 0.99 | 0.53 | 0.78 | 0.78 | 0.69 | 0.99 | -0.69 | 0.8 | – | – | – | – | – | – | – | – | – | -0.24 | 0.47 | Growth Rate (U2OS; 0 h, replicate number 1): 0.89; Growth Rate (U2OS; 18 h, replicate number 2): 0.91; Growth Rate (Fibroblast; 0 h, replicate number 1): -1; Growth Rate (HEK-293T; 0 h, replicate number 1): 0.52
7 | COc1cc2c(cc1CC=C(C)C)C(=O)C[C@@H](c1ccc(O)cc1)O2 [BAVACHININ A] | – | 0.85 | 0.89 | – | 0.89 | 0.73 | 0.99 | 0.81 | – | 0.99 | – | 0.97 | – | 0.94 | – | 0.89 | – | 0.92 | -0.67 | -0.08 | Growth Rate (U2OS; 0 h, replicate number 1): -0.43; Growth Rate (HEK-293T; 0 h, replicate number 1): -0.07
8 | Cc1ccccc1Oc1cc(-n2c(=O)cc(C(F)(F)F)[nH]c2=O)c2ccccc2c1Cl [BAY-069] | 0.02 | 0.72 | -0.7 | 0.77 | 0.63 | 0.81 | 0.86 | – | – | 0.75 | – | 0.24 | 0.74 | 0.38 | 0.72 | 0.39 | 0.64 | 0.45 | -0.96 | 0.05 | Growth Rate (U2OS; 0 h, replicate number 1): -0.77; Growth Rate (U2OS; 0 h, replicate number 2): 0.42; Growth Rate (U2OS; 18 h, replicate number 2): 0.86; Growth Rate (Fibroblast; 0 h, replicate number 1): 0.91; Growth Rate (Fibroblast; 6 h, replicate number 1): 0.84; Growth Rate (Fibroblast; 12 h, replicate number 1): 0.51; Growth Rate (Fibroblast; 18 h, replicate number 1): 0.76; Growth Rate (HEK-293T; 0 h, replicate number 1): 0.78; Growth Rate (HEK-293T; 6 h, replicate number 1): 0.59
9 | CC[C@@H](Nc1c(C#N)c(-c2ccc(-c3cccc(C)c3F)cc2)nc2cnccc12)C(=O)O [BAY-091] | 0.82 | – | 0.7 | – | 0.68 | 0.81 | – | 0.39 | 0.58 | 0.88 | 0.84 | 0.63 | 0.65 | 0.85 | 0.86 | 0.85 | 0.78 | 0.88 | 0.76 | -0.33 | Growth Rate (Fibroblast; 0 h, replicate number 1): -0.38; Growth Rate (Fibroblast; 6 h, replicate number 1): 0.59; Growth Rate (Fibroblast; 12 h, replicate number 1): 0.86; Growth Rate (Fibroblast; 18 h, replicate number 1): 0.96; Growth Rate (Fibroblast; 18 h, replicate number 2): 0.73; Growth Rate (HEK-293T; 6 h, replicate number 1): 0.68
10 | CC[C@H](Nc1c(C#N)c(-c2ccc(-c3cccc(C)c3F)cc2)nc2cnccc12)C(=O)O [BAY-0361] | 0.1 | – | 0.56 | – | 0.74 | 0.91 | – | 0.85 | 0.93 | 0.8 | 0.84 | 0.74 | 0.79 | 0.98 | 0.91 | 0.94 | 0.92 | 0.98 | 0.79 | – | Growth Rate (Fibroblast; 6 h, replicate number 1): 0.67; Growth Rate (Fibroblast; 12 h, replicate number 1): 0.65; Growth Rate (Fibroblast; 18 h, replicate number 1): 0.75; Growth Rate (HEK-293T; 6 h, replicate number 1): 0.67
